{"source": "patent US10786583B2", "about": "“Pre-saturation of the liver and subsequent administration of the contrast agent” (B. Braun Melsungen AG, priority 2013, dated 2020)", "key": {"[1]": {"experiment": "Density measurement of mixtures of MCT and F6H8", "type": "physicochemical", "conditions": "mixture with about 61.5 wt.-% MCT, based on total weight of the oil phase", "text": "By adapting the density of the oil phase to the density of the aqueous phase coalescence phenomena of the droplets as well as sedimentation phenomena, which destabilize the emulsion, can be decreased."}, "[2]": {"experiment": "Solubility of perfluorocarbon contrast agents in oil phase", "type": "physicochemical", "text": "Perfluoroctylbromide (PFOB) is a known contrast agent for the magnetic resonance spectroscopy."}}, "data": [{"smiles": "CCCCCCCCC(F)(F)C(F)(F)C(F)(F)C(F)(F)C(F)(F)C(F)(F)F", "note": "[Example F6H8, perfluorohexyloctane]", "values": [{"measurement": "Content of F6H8 in oil phase at which density of the oil mixture corresponds to the density of the aqueous phase", "setting": "[1]", "result": "about 38.5 wt.-%"}]}, {"smiles": "FC(F)(F)C(F)(F)C(F)(F)C(F)(F)C(F)(F)C(F)(F)C(F)(F)C(F)(F)C(F)(F)C(F)(F)Br", "note": "[PFDB, perfluorodecylbromide]", "values": [{"measurement": "Solubility in PFOB", "setting": "[2]", "result": "can be dissolved in PFOB"}]}, {"smiles": "FC(F)(F)C(F)(F)C(F)(F)C(F)(F)C(F)(F)C(F)(F)C(F)(F)C(F)(F)Br", "note": "[PFOB, Perfluoroctylbromide, reference compound]", "values": [{"measurement": "Solubility in MCT", "setting": "[2]", "result": "cannot be dissolved in MCT"}]}]}
